The values that follow are results of earlier work, collected in US20100291629A1, “USE OF DELEUCOCYTATION FILTERS FOR DEFENSIN PURIFICATION” (ETABLISSEMENT FRANCAIS DU SANG, priority 2006, published 2010).

One data set has as its system isolated neutrophils. To be noted: Ionomycin 1 μM; 30.10^6 isolated neutrophils.
Data set [1] concerns neutrophils.
Data set [2] deals with neutrophils. The following applies: PMA 1 μg/ml.

Take `C[C@H](CCC(=O)O)C[C@H](C)C[C@H](C)C(=O)/C=C(\O)[C@H](C)C[C@H](C)C/C=C/[C@@H](C)[C@@H](O)[C@@H](C)[C@@H](O)C[C@@H]1CC[C@@](C)([C@H]2CC[C@@](C)([C@@H](C)O)O2)O1` [ionomycin, Ionomycin]: in the data set on isolated neutrophils, the α-defensin exocytosis rate result is listed as “approximately 20%”.
On to `CSCC[C@H](NC=O)C(=O)N[C@@H](CC(C)C)C(=O)N[C@@H](Cc1ccccc1)C(=O)O` [fMLP, N-formylmethionyl-leucyl-phenylalanine], for which the “defensin release, % of the content” value in the data set on neutrophils [1] (fMLP 10^−7 M) is listed as 17%.
As for “IL8: Interleukine 8, used to treat neutrophils in vitro”, the “defensin release, % of the defensin content in neutrophil granules” value in the data set on neutrophils [1] (IL8 50 ng/ml, 2.10^6 neutrophils) was 10%.
Turning to `CCCCCCCCCCCCCC(=O)O[C@@H]1[C@@H](C)[C@@]2(O)[C@@H](C=C(CO)C[C@]3(O)C(=O)C(C)=C[C@@H]23)[C@@H]2C(C)(C)[C@]12OC(C)=O` [PMA, phorbol myristate acetate], the defensins released in the data set on neutrophils [2] was 8%.
